Test results taken from the NIST ThermoML archive (doi:10.1021/je800468h).
Numbers after ± are expanded uncertainties.

Columns and labels:
[1] = xn = mol fraction of the nth substance listed; details: 298.15 K, 101 kPa, Liquid; for electrical conductivity: Alternating current cell with electrodes; for mass density: Vibrating tube method
[2] = 298.15 K, 101 kPa, Liquid

CCCCCCn1cc[n+](C)c1.F[B-](F)(F)F [1-hexyl-3-methylimidazolium tetrafluoroborate] + CC#N
[1]
Details	electrical conductivity [S/m]	mass density [kg/m3]
x1 = 0.004117	0.838 ± 0.008	784.24 ± 0.15
x1 = 0.008445	1.442 ± 0.014	791.63 ± 0.15
x1 = 0.01744	2.35 ± 0.02	806.26 ± 0.15
x1 = 0.03816	3.51 ± 0.04	836.42 ± 0.15
x1 = 0.06486	4.13 ± 0.04	869.76 ± 0.16
x1 = 0.09763	4.25 ± 0.04	903.86 ± 0.18
x1 = 0.1399	3.96 ± 0.04	939.67 ± 0.21
x1 = 0.1943	3.37 ± 0.03	975.94 ± 0.28
x1 = 0.2712	2.53 ± 0.03	1014.86 ± 0.47
x1 = 0.3907	1.543 ± 0.015	1056.74 ± 0.97
x1 = 0.5902	0.656 ± 0.007	1100.45 ± 2.3
x1 = 0.7435	0.344 ± 0.003	1122.12 ± 3.8
x1 = 0.8889	0.192 ± 0.002	1137.2 ± 5.5
x1 = 1	0.1228 ± 0.0012	1146.34 ± 7.1

CCCCn1cc[n+](C)c1.F[B-](F)(F)F [1-butyl-3-methylimidazolium tetrafluoroborate] + ClCCl
[1], x1 = 1
Details	electrical conductivity [S/m]	mass density [kg/m3]
–	0.353 ± 0.004	1202.19 ± 7.9

CCCCn1cc[n+](C)c1.F[B-](F)(F)F [1-butyl-3-methylimidazolium tetrafluoroborate] + C[S+](C)[O-]
[1]
Details	electrical conductivity [S/m]	mass density [kg/m3]
x1 = 0.01925	0.687 ± 0.007	1101.56 ± 0.13
x1 = 0.03427	1.029 ± 0.01	1106.21 ± 0.14
x1 = 0.07837	1.56 ± 0.016	1117.8 ± 0.16
x1 = 0.1247	1.715 ± 0.017	1128.31 ± 0.2
x1 = 0.1866	1.67 ± 0.017	1139.5 ± 0.32
x1 = 0.2554	1.502 ± 0.015	1150.71 ± 0.53
x1 = 0.3251	1.31 ± 0.013	1159.4 ± 0.81
x1 = 0.4423	1.015 ± 0.01	1171.71 ± 1.5
x1 = 0.5246	0.854 ± 0.009	1178.2 ± 2.1
x1 = 0.6132	0.711 ± 0.007	1184.27 ± 2.8
x1 = 0.7494	0.543 ± 0.005	1192.13 ± 4.3

CCCCn1cc[n+](C)c1.F[B-](F)(F)F [1-butyl-3-methylimidazolium tetrafluoroborate] + CO
[1]
Details	electrical conductivity [S/m]	mass density [kg/m3]
x1 = 0.007409	0.867 ± 0.009	802.48 ± 0.15
x1 = 0.01543	1.45 ± 0.015	818.28 ± 0.15
x1 = 0.02435	1.97 ± 0.02	834.29 ± 0.15
x1 = 0.03355	2.4 ± 0.02	849.76 ± 0.15
x1 = 0.05717	3.3 ± 0.03	885.02 ± 0.16
x1 = 0.08589	3.81 ± 0.04	921.13 ± 0.18
x1 = 0.1242	4.18 ± 0.04	961.01 ± 0.2
x1 = 0.1755	4.26 ± 0.04	1002.48 ± 0.26
x1 = 0.248	3.92 ± 0.04	1046.31 ± 0.45
x1 = 0.3624	3.09 ± 0.03	1094.85 ± 0.92
x1 = 0.5583	1.76 ± 0.018	1145.28 ± 2.2

CCCCn1cc[n+](C)c1.F[P-](F)(F)(F)(F)F [1-butyl-3-methylimidazolium hexafluorophosphate] + CC#N
[1]
Details	electrical conductivity [S/m]	mass density [kg/m3]
x1 = 0.007571	1.49 ± 0.015	795.63 ± 0.15
x1 = 0.01576	2.54 ± 0.03	815.17 ± 0.15
x1 = 0.02489	3.39 ± 0.03	835.56 ± 0.15
x1 = 0.03448	4.05 ± 0.04	855.89 ± 0.16
x1 = 0.05838	5 ± 0.05	901.77 ± 0.17
x1 = 0.08779	5.39 ± 0.05	950.71 ± 0.2
x1 = 0.1261	5.27 ± 0.05	1004.47 ± 0.23
x1 = 0.1772	4.68 ± 0.05	1062.7 ± 0.32
x1 = 0.2521	3.63 ± 0.04	1128.61 ± 0.57
x1 = 0.3649	2.3 ± 0.02	1199.71 ± 1.2
x1 = 0.5591	0.995 ± 0.01	1278.14 ± 2.9
x1 = 0.7291	0.469 ± 0.005	1321.97 ± 5.1
x1 = 0.8729	0.253 ± 0.003	1349.76 ± 7.6
x1 = 1	0.147 ± 0.0015	1368.32 ± 10

CCCCn1cc[n+](C)c1.F[B-](F)(F)F [1-butyl-3-methylimidazolium tetrafluoroborate] + O
[1]
Details	electrical conductivity [S/m]	mass density [kg/m3]
x1 = 0.005053	1.72 ± 0.017	1007 ± 0.12
x1 = 0.008751	2.47 ± 0.03	1013.47 ± 0.12
x1 = 0.01927	3.59 ± 0.04	1030.78 ± 0.12
x1 = 0.03304	4.46 ± 0.04	1047.81 ± 0.13
x1 = 0.04969	4.9 ± 0.05	1065.19 ± 0.14
x1 = 0.07385	5.17 ± 0.05	1084.47 ± 0.16
x1 = 0.1053	5.21 ± 0.05	1103.47 ± 0.19
x1 = 0.1566	4.93 ± 0.05	1124.77 ± 0.28
x1 = 0.1991	4.55 ± 0.05	1137.3 ± 0.39
x1 = 0.2824	3.71 ± 0.04	1154.46 ± 0.68
x1 = 0.414	2.57 ± 0.03	1171.08 ± 1.4
x1 = 0.4919	2.04 ± 0.02	1177.86 ± 1.9
x1 = 0.5749	1.57 ± 0.016	1183.94 ± 2.5
x1 = 0.6838	1.1 ± 0.011	1190.14 ± 3.6
x1 = 0.7594	0.846 ± 0.008	1193.53 ± 4.5
x1 = 0.8931	0.527 ± 0.005	1198.74 ± 6.2
x1 = 1	0.353 ± 0.004	1202.19 ± 7.9

CCCCn1cc[n+](C)c1.N#CN=C=[N-] [1-butyl-3-methylimidazolium dicyanamide]
[2]
Details	electrical conductivity [S/m]	mass density [kg/m3]
Alternating current cell with electrodes	1.139 ± 0.011	–
Vibrating tube method	–	1059.12 ± 6.1

ClCCl [dichloromethane] + CCCCn1cc[n+](C)c1.F[B-](F)(F)F
[1]
Details	electrical conductivity [S/m]	mass density [kg/m3]
x2 = 0.00755	0.0602 ± 0.0006	1316.6 ± 0.18
x2 = 0.01921	0.2 ± 0.002	1314.92 ± 0.19
x2 = 0.02714	0.31 ± 0.003	1313.4 ± 0.19
x2 = 0.03878	0.436 ± 0.004	1311.8 ± 0.19
x2 = 0.07987	0.98 ± 0.01	1304.97 ± 0.22
x2 = 0.1395	1.427 ± 0.014	1294.06 ± 0.32
x2 = 0.194	1.55 ± 0.016	1284.29 ± 0.46
x2 = 0.2674	1.607 ± 0.016	1271.96 ± 0.72
x2 = 0.3355	1.53 ± 0.015	1261.43 ± 1
x2 = 0.4787	1.209 ± 0.012	1242.95 ± 1.9
x2 = 0.6019	0.93 ± 0.009	1230.33 ± 3
x2 = 0.773	0.62 ± 0.006	1216.18 ± 4.8
x2 = 0.8496	0.511 ± 0.005	1211.19 ± 5.7
x2 = 0.9107	0.441 ± 0.004	1207.46 ± 6.5
